Assay results from BigSolDB 2.1.

O=S(=O)(c1ccc(O)cc1)c1ccccc1O
solubility (mole fraction)
Conditions	in 1,4-dioxane	in 2-butanone	in acetone	in acetonitrile	in ethanol	in ethyl acetate	in isopropanol	in methanol	in n-butanol
278.15 K	0.0184	0.101	0.106	0.00974	0.0655	0.0386	0.0656	0.0569	0.0571
280.65 K	0.0213	0.103	0.108	0.0109	0.0672	0.0402	0.068	0.0583	0.0584
283.15 K	0.0242	0.105	0.11	0.0121	0.0689	0.0415	0.0708	0.0597	0.0597
285.65 K	0.0272	0.107	0.112	0.0132	0.0706	0.0432	0.074	0.0612	0.0609
288.15 K	0.0303	0.109	0.115	0.0144	0.0725	0.0449	0.0767	0.0627	0.0621
290.65 K	0.0338	0.111	0.117	0.0156	0.0746	0.0465	0.0798	0.0643	0.0634
293.15 K	0.0376	0.113	0.12	0.0169	0.0766	0.0482	0.0825	0.0661	0.0645
295.65 K	0.0415	0.115	0.124	0.0179	0.0785	0.0501	0.0857	0.0677	0.0658
298.15 K	0.0465	0.118	0.127	0.0192	0.0805	0.052	0.089	0.0696	0.0671
300.65 K	0.0514	0.12	0.13	0.0204	0.0827	0.054	0.0925	0.0716	0.0682
303.15 K	0.0557	0.122	0.133	0.0219	0.085	0.0562	0.0963	0.0739	0.0694
305.65 K	0.0611	0.125	0.136	0.0236	0.0872	0.0585	0.1	0.0763	0.0707
308.15 K	0.0664	0.127	0.139	0.0252	0.0898	0.0609	0.104	0.0786	0.0719
310.65 K	0.0713	0.13	0.142	0.0271	0.0928	0.0637	0.109	0.0809	0.0734
313.15 K	0.077	0.134	0.146	0.0295	0.0957	0.0669	0.113	0.0838	0.0751
